Experimental data taken from US20150010928A1, “MEANS AND METHODS FOR ASSESSING AN ENDOCRINE DISEASE OR DISORDER” (priority 2012, published 2015).
Marks after values point to notes of the source that are not given here.

System: female rats
Experiment: Plasma metabolite profiling (GC-MS, LC-MS, SPE-LC-MS) in female rats dosed once daily over 28 days (OECD 407)
Type: in vivo, rat
Conditions: high dose
Outline: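 Metabolites were measured by GC-MS (derivatised) and reversed-phase LC-MS, with steroids by online SPE-LC-MS, in plasma drawn from fasted rats on days 7, 14 and 28 of once-daily dosing (5/sex/group). Values are ratios versus sex-matched untreated controls, normalized to pool samples, with Welch-test p-values.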

Structure (SMILES): C[C@@H]1CC2=CC(=O)CC[C@@H]2[C@H]2CC[C@@]3(C)[C@@H](CC[C@]3(C)O)[C@@H]21 [Mibolerone]
- 3-Hydroxybutyrate (f7, female rats, Table 15a): 1.36 *
- DAG (C18:1,C18:2) (f7, female rats, Table 15a): 0.43
- Glutamate (f7, female rats, Table 15a): 1.66 *
- Glycine (f7, female rats, Table 15a): 1.19 *
- Phosphatidylcholine (C16:0,C20:5) (f7, female rats, Table 15a): 0.56
- TAG (C16:0,C16:1) (f7, female rats, Table 15a): 2.26
- TAG (C16:0,C18:1,C18:3) (f7, female rats, Table 15a): 1.22
- TAG (C16:0,C18:2) (f7, female rats, Table 15a): 0.87
- TAG (C18:1,C18:2) (f7, female rats, Table 15a): 0.77
- TAG (C18:2,C18:2) (f7, female rats, Table 15a): 0.9
- TAG (C18:3, C18:2, C18:1) (f7, female rats, Table 15a): 0.99
- TAG (DAG-Fragment) (f7, female rats, Table 15a): 0.95
- TAG No 059 (f7, female rats, Table 15a): 1.08 *
- Threonic acid (f7, female rats, Table 15a): 1.15 *
- trans-4-Hydroxyproline (f7, female rats, Table 15a): 1.8 *
- Androstenedione (f7, female rats, Table 15b): 0.14 *
- Arginine (f7, female rats, Table 15b): 0.85 *
- Campesterol (f7, female rats, Table 15b): 0.16
- Ceramide (d18:1,C24:0) (f7, female rats, Table 15b): 0.12 *
- Lactate (f7, female rats, Table 15b): 0.62 *
- Lysine (f7, female rats, Table 15b): 0.68 *
- Metanephrine (f7, female rats, Table 15b): 0.62 *
- Normetanephrine (f7, female rats, Table 15b): 1.15
- Phosphatidylcholine (C16:0,C20:5) (f7, female rats, Table 15b): 0.56 *
- Phosphatidylcholine (C16:0,C22:6) (f7, female rats, Table 15b): 0.18 *
- Phosphatidylcholine (C18:0, C20:3) (f7, female rats, Table 15b): 0.2 *
- Phosphatidylcholine (C18:0,C18:1) (f7, female rats, Table 15b): 0.21 *
- Progesterone (f7, female rats, Table 15b): 0.62
- Pyruvate (f7, female rats, Table 15b): 0.75 *
- Sphingomyelin (d18:1,C23:0) (f7, female rats, Table 15b): 0.06 *
- Sphingomyelin (d18:1,C24:0) (f7, female rats, Table 15b): 0.11 *
- Urea (f7, female rats, Table 15b): 0.65 *
- 3-Hydroxybutyrate (f14, female rats, Table 15a): 1.73 *
- DAG (C18:1,C18:2) (f14, female rats, Table 15a): 2.88 *
- Glutamate (f14, female rats, Table 15a): 1.67 *
- Glycine (f14, female rats, Table 15a): 1.22 *
- Phosphatidylcholine (C16:0,C20:5) (f14, female rats, Table 15a): 1.54 *
- TAG (C16:0,C16:1) (f14, female rats, Table 15a): 12.22 *
- TAG (C16:0,C18:1,C18:3) (f14, female rats, Table 15a): 8.88 *
- TAG (C16:0,C18:2) (f14, female rats, Table 15a): 6.82 *
- TAG (C18:1,C18:2) (f14, female rats, Table 15a): 8.37 *
- TAG (C18:2,C18:2) (f14, female rats, Table 15a): 6.69 *
- TAG (C18:3, C18:2, C18:1) (f14, female rats, Table 15a): 5.98 *
- TAG (DAG-Fragment) (f14, female rats, Table 15a): 7.86 *
- TAG No 059 (f14, female rats, Table 15a): 4.67 *
- Threonic acid (f14, female rats, Table 15a): 1.18 *
- trans-4-Hydroxyproline (f14, female rats, Table 15a): 2.44 *
- Androstenedione (f14, female rats, Table 15b): 0.11 *
- Arginine (f14, female rats, Table 15b): 0.98 *
- Campesterol (f14, female rats, Table 15b): 0.89
- Ceramide (d18:1,C24:0) (f14, female rats, Table 15b): 2.02 *
- Lactate (f14, female rats, Table 15b): 0.74 *
- Lysine (f14, female rats, Table 15b): 0.63 *
- Metanephrine (f14, female rats, Table 15b): 0.72 *
- Normetanephrine (f14, female rats, Table 15b): 0.66 *
- Phosphatidylcholine (C16:0,C20:5) (f14, female rats, Table 15b): 1.54
- Phosphatidylcholine (C16:0,C22:6) (f14, female rats, Table 15b): 0.84 *
- Phosphatidylcholine (C18:0, C20:3) (f14, female rats, Table 15b): 0.98
- Phosphatidylcholine (C18:0,C18:1) (f14, female rats, Table 15b): 0.93
- Progesterone (f14, female rats, Table 15b): 0.13 *
- Pyruvate (f14, female rats, Table 15b): 0.83 *
- Sphingomyelin (d18:1,C23:0) (f14, female rats, Table 15b): 1.26
- Sphingomyelin (d18:1,C24:0) (f14, female rats, Table 15b): 1.33 *
- Urea (f14, female rats, Table 15b): 0.48 *
- 3-Hydroxybutyrate (f28, female rats, Table 15a): 1.06
- DAG (C18:1,C18:2) (f28, female rats, Table 15a): 2.27 *
- Glutamate (f28, female rats, Table 15a): 1.73 *
- Glycine (f28, female rats, Table 15a): 1.18 *
- Phosphatidylcholine (C16:0,C20:5) (f28, female rats, Table 15a): 1.32 *
- TAG (C16:0,C16:1) (f28, female rats, Table 15a): 5.83 *
- TAG (C16:0,C18:1,C18:3) (f28, female rats, Table 15a): 6.23 *
- TAG (C16:0,C18:2) (f28, female rats, Table 15a): 4.89 *
- TAG (C18:1,C18:2) (f28, female rats, Table 15a): 4.95 *
- TAG (C18:2,C18:2) (f28, female rats, Table 15a): 4.92 *
- TAG (C18:3, C18:2, C18:1) (f28, female rats, Table 15a): 4.74 *
- TAG (DAG-Fragment) (f28, female rats, Table 15a): 5.74 *
- TAG No 059 (f28, female rats, Table 15a): 3.5 *
- Threonic acid (f28, female rats, Table 15a): 1.94 *
- trans-4-Hydroxyproline (f28, female rats, Table 15a): 2 *
- Androstenedione (f28, female rats, Table 15b): 0.07 *
- Arginine (f28, female rats, Table 15b): 0.83 *
- Campesterol (f28, female rats, Table 15b): 0.54 *
- Ceramide (d18:1,C24:0) (f28, female rats, Table 15b): 1.53 *
- Lactate (f28, female rats, Table 15b): 0.73 *
- Lysine (f28, female rats, Table 15b): 0.57 *
- Metanephrine (f28, female rats, Table 15b): 0.66 *
- Normetanephrine (f28, female rats, Table 15b): 0.78 *
- Phosphatidylcholine (C16:0,C20:5) (f28, female rats, Table 15b): 1.32
- Phosphatidylcholine (C16:0,C22:6) (f28, female rats, Table 15b): 0.74 *
- Phosphatidylcholine (C18:0, C20:3) (f28, female rats, Table 15b): 0.91 *
- Phosphatidylcholine (C18:0,C18:1) (f28, female rats, Table 15b): 0.86
- Progesterone (f28, female rats, Table 15b): 0.06 *
- Pyruvate (f28, female rats, Table 15b): 0.65 *
- Sphingomyelin (d18:1,C23:0) (f28, female rats, Table 15b): 0.63 *
- Sphingomyelin (d18:1,C24:0) (f28, female rats, Table 15b): 1.05
- Urea (f28, female rats, Table 15b): 0.88 *
